Experimental data as given in ChEMBL document CHEMBL1909046, “DrugMatrix in vitro pharmacology data”.
pIC50, pKi: −log10 of the molar value.

How the values were obtained:
Substance-K receptor = molecular target: T1, Substance-K receptor (Homo sapiens, UniProt P21452); assay type: cell membranes, CHO, Membrane; conditions: for IC50: cho; for all read-outs here: in other assays of this panel Not Active means under 50% inhibition at 10 µM
T1 sequence (P21452 whole entry): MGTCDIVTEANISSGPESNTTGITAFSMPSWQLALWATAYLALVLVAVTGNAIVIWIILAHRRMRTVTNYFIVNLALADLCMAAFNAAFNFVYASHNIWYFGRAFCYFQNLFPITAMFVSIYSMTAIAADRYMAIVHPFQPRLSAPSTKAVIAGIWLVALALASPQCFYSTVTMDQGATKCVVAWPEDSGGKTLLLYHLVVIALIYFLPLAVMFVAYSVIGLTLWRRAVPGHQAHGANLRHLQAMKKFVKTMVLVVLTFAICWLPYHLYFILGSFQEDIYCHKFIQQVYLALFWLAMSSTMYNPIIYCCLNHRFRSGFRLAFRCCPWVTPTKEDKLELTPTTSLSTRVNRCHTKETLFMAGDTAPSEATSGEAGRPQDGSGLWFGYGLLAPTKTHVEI

[1] = molecular target: C-C chemokine receptor type 5 (Homo sapiens, UniProt P51681); assay type: cell membranes, Membrane; conditions: hek293; note: in other assays of this panel Not Active means under 50% inhibition at 10 µM
Chain of C-C chemokine receptor type 5 (P51681 whole entry): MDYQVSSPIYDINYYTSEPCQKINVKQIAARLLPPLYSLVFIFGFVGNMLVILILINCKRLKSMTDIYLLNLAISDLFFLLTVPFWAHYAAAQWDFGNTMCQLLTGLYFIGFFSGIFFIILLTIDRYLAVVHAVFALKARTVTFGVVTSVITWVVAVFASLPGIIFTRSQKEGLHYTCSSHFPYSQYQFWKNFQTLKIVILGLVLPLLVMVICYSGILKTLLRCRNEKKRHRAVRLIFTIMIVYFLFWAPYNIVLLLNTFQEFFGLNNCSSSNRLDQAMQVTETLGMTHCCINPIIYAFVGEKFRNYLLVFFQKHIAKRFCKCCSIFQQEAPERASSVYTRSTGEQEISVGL

[2] = molecular target: T2, Muscarinic acetylcholine receptor M5 (Homo sapiens, UniProt P08912); assay type: cell membranes, Membrane; conditions: cho-k1; note: in other assays of this panel Not Active means under 50% inhibition at 10 µM
T2 sequence (P08912 whole entry): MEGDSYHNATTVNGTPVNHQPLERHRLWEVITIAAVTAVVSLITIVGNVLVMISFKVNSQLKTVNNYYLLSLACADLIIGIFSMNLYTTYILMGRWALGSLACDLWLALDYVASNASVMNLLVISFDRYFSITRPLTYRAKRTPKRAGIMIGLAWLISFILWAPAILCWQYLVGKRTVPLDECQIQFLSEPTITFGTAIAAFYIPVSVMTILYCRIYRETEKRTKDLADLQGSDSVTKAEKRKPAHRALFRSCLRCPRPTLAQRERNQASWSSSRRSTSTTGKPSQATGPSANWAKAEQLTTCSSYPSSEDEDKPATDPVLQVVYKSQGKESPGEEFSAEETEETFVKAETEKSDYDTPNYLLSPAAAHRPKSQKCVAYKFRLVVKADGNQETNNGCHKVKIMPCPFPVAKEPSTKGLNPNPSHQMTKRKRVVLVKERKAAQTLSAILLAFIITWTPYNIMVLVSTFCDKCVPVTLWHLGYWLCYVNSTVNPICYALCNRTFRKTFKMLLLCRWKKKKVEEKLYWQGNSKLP

[3] = DRUGMATRIX: Platelet-Derived Growth Factor (PDGF) radioligand binding (ligand: [125I] PDGF); assay type: cell-based; conditions: nih3t3; Not Active = under 50% inhibition at 10 µM
[4] = molecular target: Tyrosine-protein kinase Fyn (Homo sapiens, UniProt P06241); experiment: biochemical; assay type: cell-based, Insect cells; conditions: insect cells;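 note: enzymatic inhibition of Fyn kinase activity measured with Poly(Glu:Tyr) as the phosphorylation substrate; in other assays of this panel Not Active means under 50% inhibition at 10 µM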
Chain of Tyrosine-protein kinase Fyn (P06241 whole entry): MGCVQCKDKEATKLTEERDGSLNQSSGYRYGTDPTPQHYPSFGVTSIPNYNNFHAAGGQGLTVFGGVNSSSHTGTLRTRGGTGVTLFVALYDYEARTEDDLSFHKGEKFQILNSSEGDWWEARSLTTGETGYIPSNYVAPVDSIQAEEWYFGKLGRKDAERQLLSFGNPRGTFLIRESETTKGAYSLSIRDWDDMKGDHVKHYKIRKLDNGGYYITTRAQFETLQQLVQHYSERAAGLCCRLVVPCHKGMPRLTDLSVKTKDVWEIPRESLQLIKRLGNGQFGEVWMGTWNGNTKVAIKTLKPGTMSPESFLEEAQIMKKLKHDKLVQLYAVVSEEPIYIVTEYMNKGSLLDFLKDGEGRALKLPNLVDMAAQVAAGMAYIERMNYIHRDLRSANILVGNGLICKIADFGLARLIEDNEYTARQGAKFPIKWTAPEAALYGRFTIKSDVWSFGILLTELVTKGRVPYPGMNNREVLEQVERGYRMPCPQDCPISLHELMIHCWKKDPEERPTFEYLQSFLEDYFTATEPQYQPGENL

[5] = molecular target: T3, 5-hydroxytryptamine receptor 1A (Rattus norvegicus, UniProt P19327); assay type: cell membranes, CHO-K1, Membrane; conditions: for IC50: cho-k1; for pIC50: read-out: IC50; for pKi: read-out: Ki
T3 sequence (P19327 whole entry): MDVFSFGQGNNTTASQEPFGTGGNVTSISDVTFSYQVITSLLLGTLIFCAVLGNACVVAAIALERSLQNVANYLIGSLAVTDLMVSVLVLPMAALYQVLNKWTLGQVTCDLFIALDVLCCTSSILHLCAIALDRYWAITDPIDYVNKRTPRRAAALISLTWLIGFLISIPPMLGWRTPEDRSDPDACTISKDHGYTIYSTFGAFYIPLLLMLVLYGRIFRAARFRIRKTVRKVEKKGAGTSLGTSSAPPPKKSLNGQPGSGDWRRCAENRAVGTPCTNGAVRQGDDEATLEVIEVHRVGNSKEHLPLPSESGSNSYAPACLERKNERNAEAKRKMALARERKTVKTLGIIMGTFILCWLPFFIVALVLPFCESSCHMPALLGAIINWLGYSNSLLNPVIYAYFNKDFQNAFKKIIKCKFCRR

Cytochrome P450 3A4 = Cytochrome P450 3A4 (Homo sapiens, UniProt P08684); conditions: bti-tn-5b1-4; note: in other assays of this panel Not Active means under 50% inhibition at 10 µM
Chain of Cytochrome P450 3A4 (P08684 whole entry): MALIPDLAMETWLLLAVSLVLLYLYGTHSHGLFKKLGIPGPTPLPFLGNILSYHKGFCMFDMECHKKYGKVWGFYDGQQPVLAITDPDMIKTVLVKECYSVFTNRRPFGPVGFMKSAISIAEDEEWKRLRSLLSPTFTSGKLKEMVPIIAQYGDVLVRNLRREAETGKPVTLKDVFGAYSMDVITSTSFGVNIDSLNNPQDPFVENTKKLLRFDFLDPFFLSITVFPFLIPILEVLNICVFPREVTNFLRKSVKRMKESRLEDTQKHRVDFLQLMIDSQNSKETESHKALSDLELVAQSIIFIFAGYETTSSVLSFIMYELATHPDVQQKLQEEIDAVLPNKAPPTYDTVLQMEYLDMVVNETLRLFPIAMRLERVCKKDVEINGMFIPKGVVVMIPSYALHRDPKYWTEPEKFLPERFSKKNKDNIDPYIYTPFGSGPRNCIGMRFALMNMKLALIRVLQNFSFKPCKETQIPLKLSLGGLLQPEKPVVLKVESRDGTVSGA

CC[C@H]1OC(=O)[C@H](C)[C@@H](O[C@H]2C[C@@](C)(OC)[C@@H](O)[C@H](C)O2)[C@H](C)[C@@H](O[C@@H]2O[C@H](C)C[C@H](N(C)C)[C@H]2O)[C@](C)(O)C[C@@H](C)CN(C)[C@H](C)[C@@H](O)[C@]1(C)O [AZITHROMYCIN]
Not Active: IC50 (Substance-K receptor) | IC50 [1] | IC50 [2] | IC50 [3] | Ki [3] | IC50 [4] | IC50 [5]

CC(C)(C)c1ccc(S(=O)(=O)/C=C/C#N)cc1 [BAY-11-7085]
Not Active: IC50 (Substance-K receptor) | IC50 [1] | IC50 [2] | IC50 [3] | Ki [3] | IC50 [4] | IC50 [5] | IC50 (Cytochrome P450 3A4) | Ki (Cytochrome P450 3A4)

CC(C)C[C@H]1C(=O)N2CCC[C@H]2[C@]2(O)O[C@](NC(=O)[C@@H]3C=C4c5cccc6[nH]c(Br)c(c56)C[C@H]4N(C)C3)(C(C)C)C(=O)N12 [BROMOCRIPTINE]
Not Active: IC50 (Substance-K receptor) | IC50 [1] | IC50 [2] | IC50 [3] | Ki [3] | IC50 [4]
8.25: pIC50 [5]
8.49: pKi [5]

CCC[C@@H]1C[C@@H](C(=O)N[C@@H]([C@H]2O[C@H](SC)[C@H](O)[C@@H](O)[C@H]2O)[C@H](C)Cl)N(C)C1 [CLINDAMYCIN]
Not Active: IC50 (Substance-K receptor) | IC50 [1] | IC50 [2] | IC50 [3] | Ki [3] | IC50 [4] | IC50 [5]

CN1C(=O)CN=C(c2ccccc2)c2cc(Cl)ccc21 [DIAZEPAM]
Not Active: IC50 (Substance-K receptor) | IC50 [1] | IC50 [2] | IC50 [3] | Ki [3] | IC50 [4] | IC50 [5]

CN1C[C@H](C(=O)N[C@]2(C)O[C@@]3(O)[C@@H]4CCCN4C(=O)[C@H](Cc4ccccc4)N3C2=O)C[C@@H]2c3cccc4[nH]cc(c34)C[C@H]21 [DIHYDROERGOTAMINE]
9.42: pKi [5]
9.18: pIC50 [5]
Not Active: IC50 (Substance-K receptor) | IC50 [1] | IC50 [2] | IC50 [3] | Ki [3] | IC50 [4]

CCOC(=O)C1=C(C)NC(C)=C(C(=O)OC)C1c1cccc(Cl)c1Cl (stereo unspecified) [FELODIPINE]
Not Active: IC50 (Substance-K receptor) | IC50 [1] | IC50 [2] | IC50 [3] | Ki [3] | IC50 [4] | IC50 [5]

Cc1cn[nH]c1 [FOMEPIZOLE]
Not Active: IC50 (Substance-K receptor) | IC50 [1] | IC50 [2] | IC50 [3] | Ki [3] | IC50 [4] | IC50 [5]

Cc1cnc(C(=O)NCCc2ccc(S(=O)(=O)NC(=O)NC3CCCCC3)cc2)cn1 [GLIPIZIDE]
Not Active: IC50 (Substance-K receptor) | IC50 [1] | IC50 [2] | IC50 [3] | Ki [3] | IC50 [4] | IC50 [5]

COc1ccccc1OCC(O)CO (stereo unspecified) [GUAIFENESIN]
Not Active: IC50 (Substance-K receptor) | IC50 [1] | IC50 [2] | IC50 [3] | Ki [3] | IC50 [4] | IC50 [5]

C/C=C\c1ccc(O)c(OC)c1 [ISOEUGENOL]
Not Active: IC50 (Substance-K receptor) | IC50 [1] | IC50 [2] | IC50 [3] | Ki [3] | IC50 [4] | IC50 [5]

CC[C@H](C)C(=O)O[C@H]1C[C@@H](C)C=C2C=C[C@H](C)[C@H](CC[C@@H]3C[C@@H](O)CC(=O)O3)[C@H]21 [LOVASTATIN]
Not Active: IC50 [1] | IC50 [2] | IC50 [3] | Ki [3] | IC50 [4] | IC50 [5]
5.03: pKi (Substance-K receptor; read-out: Ki)
4.55: pIC50 (Substance-K receptor; read-out: IC50)

OCCN1CCN(CCCN2c3ccccc3Sc3ccc(Cl)cc32)CC1 [PERPHENAZINE]
Not Active: IC50 (Substance-K receptor) | IC50 [1] | IC50 [2] | IC50 [3] | Ki [3] | IC50 [4] | IC50 [5]
